Assay results published in ChEMBL document CHEMBL5579840, “Optimization of diastereomeric dihydropyridines as antimalarials” (Eur J Med Chem, 2024).

Key:
[1] = system: Plasmodium falciparum; test: Antimalarial activity against chloroquine-sensitive Plasmodium falciparum 3D7 infected in erythroctes incubated for 72 hrs by SYBR green 1 based spectrofluorometer; assay type: functional, organism-based, Erythrocyte
[2] = system: Plasmodium falciparum; test: Antimalarial activity against chloroquine-resistant Plasmodium falciparum K1 infected in erythroctes incubated for 72 hrs by SYBR green 1 based spectrofluorometer; assay type: functional, organism-based, Erythrocyte
[3] = Cytotoxicity against mouse J774.A1 cells; assay type: toxicity, cell-based
[4] = Plasmodium falciparum, 3D7, Erythrocyte, 72 h
[5] = Plasmodium falciparum, K1, Erythrocyte, 72 h

Row | Compound | EC50 [1, 4] [nM] | EC50 [2, 5] [nM] | EC50 [3] [nM] | EC50 ([1]; erythrocyte) [nM] | EC50 ([2]; erythrocyte) [nM]
1 | CCOC(=O)C1=C(C)NC2=C(C(=O)OC(c3cccc(Cl)c3)C2)C1c1ccccc1Cl (configuration not stated) | > 6000 | > 6000 | > 20000 | – | –
2 | CCOC(=O)C1=C(C)NC2=C(C(=O)OC(c3ccc(OC)c(OC)c3)C2)C1c1ccc(OC)cc1 (configuration not stated) | > 10000 | > 10000 | > 20000 | – | –
3 | CCOC(=O)C1=C(C)NC2=C(C(=O)OC(c3ccc(OC)c(OC)c3)C2)C1c1ccc(Cl)cc1C (stereo in doubt; 38A) | – | – | > 20000 | > 4700 | 992
4 | CCOC(=O)C1=C(C)NC2=C(C(=O)OC(c3cccc(OC)c3)C2)C1c1ccccc1Cl (stereo in doubt; 25A) | – | – | > 20000 | 2130 | > 7000
5 | CCOC(=O)C1=C(C)NC2=C(C(=O)OC(c3ccc(OC)c(OC)c3)C2)C1c1ccc(Br)cc1 (stereo in doubt; 12A) | – | – | > 20000 | 1450 | 3370
6 | CCOC(=O)C1=C(C)NC2=C(C(=O)CC(c3ccc(Cl)c(OC)c3)C2)C1c1ccccc1Cl (stereo in doubt; 39A) | – | – | > 20000 | 630 | 397
7 | CCOC(=O)C1=C(C)NC2=C(C(=O)OC(c3ccc(Cl)c(OC)c3)C2)C1c1ccccc1Cl (stereo in doubt; 40A) | – | – | > 20000 | > 7700 | 2870
8 | CCOC(=O)C1=C(c2ccccc2)NC2=C(C(=O)CC(c3ccc(OC)c(OC)c3)C2)C1c1ccccc1Cl (stereo in doubt; 35A) | – | – | > 20000 | 3720 | > 10900
9 | CCOC(=O)C1=C(C)NC2=C(C(=O)CC(c3ccc(OC)c(OC)c3)C2)C1c1ccccc1Cl (stereo in doubt; 2A) | – | – | > 20000 | 165 | 141
10 | CCOC(=O)C1=C(C)NC2=C(C(=O)OC(c3ccccc3C)C2)C1c1ccccc1Cl (configuration not stated) | > 5000 | > 5000 | > 20000 | – | –
11 | CCOC(=O)C1=C(C)NC2=C(C(=O)CC(c3ccc(OC)c(OC)c3)C2)C1c1ccc(Cl)cc1C (stereo in doubt; 37A) | – | – | > 20000 | 94 | 82.6
12 | CCCC1=C(C(=O)OCC)C(c2ccc(Cl)cc2C)C2=C(CC(c3ccc(OC)c(OC)c3)OC2=O)N1 (stereo in doubt; 45A) | – | – | > 20000 | 148 | 102
13 | COc1ccc(C2CC3=C(C(=O)O2)C(c2ccccc2Cl)C(C(=O)OC(C)(C)C)=C(C)N3)cc1OC (stereo in doubt; 30A) | > 13000 | – | > 20000 | – | > 13000
14 | COCC1=C(C(=O)OC)C(c2ccc(Cl)cc2)C2=C(CC(c3cc(OC)c(OC)c(OC)c3)OC2=O)N1 (stereo in doubt; 56A) | – | 62.4 | > 20000 | 61 | –
15 | CCOC(=O)C1=C(C)NC2=C(C(=O)OC(c3ccccc3OC)C2)C1c1ccccc1Cl (stereo in doubt; 24A) | > 6000 | > 6000 | > 20000 | – | –
16 | CCOC(=O)C1=C(C)NC2=C(C(=O)CC(c3ccc(OC)c(OC)c3)C2)C1c1ccc(Cl)cc1 (stereo in doubt; 36A) | – | – | > 20000 | 264 | 221
17 | CCOC(=O)C1=C(C)NC2=C(C(=O)OC(c3ccc(Cl)c(OC)c3)C2)C1c1ccc(Cl)cc1C (stereo in doubt; 42A) | – | – | > 20000 | > 13000 | > 13000
18 | CCCC1=C(C(=O)OCC)C(c2ccc(Cl)cc2C)C2=C(CC(c3ccc(OC)c(OC)c3)CC2=O)N1 (stereo in doubt; 44A) | – | – | > 20000 | 98.3 | 82.9
19 | CCOC(=O)C1=C(C)NC2=C(C(=O)OC(c3ccc(OC)c(OC)c3)C2)C1c1ccc2ccccc2c1 (configuration not stated) | > 10000 | > 10000 | > 20000 | – | –

Row | Compound | EC50 [1, 4] [nM] | EC50 [2, 5] [nM] | EC50 [3] [nM] | EC50 ([1]; erythrocyte) [nM] | EC50 ([2]; erythrocyte) [nM]
20 | CCOC(=O)C1=C(C)NC2=C(C(=O)OC(c3ccc(OC)c(OC)c3)C2)C1c1ccccc1OC (stereo in doubt; 9A) | – | > 5600 | > 20000 | > 5600 | –
21 | COc1ccc(C2CC3=C(C(=O)O2)C(c2ccccc2Cl)C(C(=O)OCc2ccccc2)=C(C)N3)cc1OC (stereo in doubt; 31A) | > 11800 | > 11800 | > 20000 | – | –
22 | CCOC(=O)C1=C(C)NC2=C(C(=O)OC(c3ccc(OC)c(OC)c3)C2)C1c1ccccc1Cl (stereo in doubt; 3A) | – | – | > 20000 | 2330 | 1390
23 | CCOC(=O)C1=C(C)NC2=C(C(=O)OC(c3ccccc3Cl)C2)C1c1ccccc1Cl (stereo in doubt; 18A) | > 5500 | > 5500 | > 20000 | – | –
24 | CCOC(=O)C1=C(C(=O)OCC)C(c2ccccc2Cl)C2=C(CC(c3ccc(OC)c(OC)c3)OC2=O)N1 (stereo in doubt; 33A) | – | – | > 20000 | 38.1 | 13.6
25 | CCOC(=O)C1=C(C)NC2=C(C(=O)OC(c3ccc(OC)c(OC)c3)C2)C1c1cccc(Cl)c1 (configuration not stated) | > 10000 | > 10000 | > 20000 | – | –
26 | CCCC1=C(C(=O)OCC)C(c2ccccc2Cl)C2=C(CC(c3ccc(OC)c(OC)c3)CC2=O)N1 (stereo in doubt; 43A) | – | – | > 20000 | 28.6 | 26.5
27 | CCCC1=C(C(=O)OCC)C(c2ccc(Cl)cc2C)C2=C(CC(c3cc(OC)ccc3OC)CC2=O)N1 (stereo in doubt; 48A) | – | – | > 20000 | 542 | 228
28 | CCOC(=O)C1=C(C)NC2=C(C(=O)OC(c3ccc(OC)c(OC)c3)C2)C1c1ccc([N+](=O)[O-])cc1 (stereo in doubt; 13A) | – | – | > 20000 | > 10000 | > 10000
29 | CCOC(=O)C1=C(C)NC2=C(C(=O)OC(c3ccc(OC)c(OC)c3)C2)C1c1cccc(C)c1 (configuration not stated) | > 10000 | > 10000 | > 20000 | – | –
30 | CCCC1=C(C(=O)OCC)C(c2ccccc2Cl)C2=C(CC(c3ccc(OC)c(OC)c3)OC2=O)N1 (stereo in doubt; 32A) | – | – | > 20000 | 811 | 418
31 | CCOC(=O)C1=C(C)NC2=C(C(=O)OC(c3ccc(Cl)cc3)C2)C1c1ccccc1Cl (stereo in doubt; 20A) | – | – | > 20000 | 510 | 560
32 | CCOC(=O)C1=C(C)NC2=C(C(=O)OC(c3ccc(OC)cc3)C2)C1c1ccccc1Cl (stereo in doubt; 26A) | – | – | > 20000 | > 7000 | > 7000
33 | COc1cc([C@@H]2c3cc4c(cc3[C@H](O)[C@H]3COC(=O)[C@H]23)OCO4)cc(OC)c1OC [PODOFILOX] | – | – | 250 | – | –
34 | CCOC(=O)C1=C(C)NC2=C(C(=O)OC(c3ccccc3)C2)C1c1ccccc1Cl (stereo in doubt; 17A) | > 9500 | – | > 20000 | – | –
35 | COc1ccc(C2CC(=O)C3=C(C2)NC(C)=C(C(=O)O)C3c2ccccc2Cl)cc1OC (stereo in doubt; 27A) | > 15000 | – | > 20000 | – | –
36 | CCOC(=O)C1=C(C)NC2=C(C(=O)OC(c3ccc(OC)c(OC)c3)C2)C1c1ccc(Cl)cc1C (mixture of isomers) | – | – | – | 19.5 | 46.8
37 | CCOC(=O)C1=C(C)NC2=C(C(=O)OC(c3ccc(Cl)c(OC)c3)C2)C1c1ccccc1Cl (mixture of isomers) | – | – | – | 595 | 345
38 | CCCC1=C(C(=O)OCC)C(c2ccc(Cl)cc2C)C2=C(CC(c3ccc(OC)c(OC)c3)CC2=O)N1 (mixture of isomers) | – | – | – | 13.5 | 24.1
